Broadly, the IC50 is the concentration needed to halve the response being measured.

This note sets out measurements from patent US12577250B2, “1,2,4-triazolone derivative as DHODH inhibitor, and preparation method therefor and use thereof” (WIGEN BIOMEDICINE TECHNOLOGY (SHANGHAI) CO., LTD., priority 2021, dated 2026).

One assay concerns the target DHODH (Homo sapiens, UniProt Q02127). Kind of assay: Assay against enzyme activity of DHODH (DCIP absorption at 600 nm). Format: biochemical. How it is done: The enzyme activity of DHODH was assayed through a cascade reaction to determine its ability to catalyze the oxidation of a natural substrate DHO (dihydroorotic acid) to orotic acid while reducing coenzyme Q. The enzyme activity of DHODH was indirectly detected by assaying the ability of the coenzyme Q to reduce a chromogenic substrate DCIP. After the compound and an enzyme reaction mixture were incubated for 5 min, a reaction substrate DHO was added to start the reaction, and the enzyme activity was assayed by assaying the absorption at 600 nm to detect the DCIP exhaustion in a timed manner.

For another assay, the system named is MV-4-11 cells. Briefly: Anti-proliferative activity on MV-4-11 cells (CellTiter-Lumi, 72 h). It is filed as cell-based. The note with it: Homo sapiens, MV4-11, 72 h, read-out: Cell anti-proliferative activity IC50 MV-4-11. How it is done:
MV-4-11 cells were seeded into a 384-well plate (Fisher 142762) at 3000 cells per well. The next day, serially diluted compounds were added, and 72 h after the addition, CellTiter-Lumi (Beyotime C0068XL) was added to measure the ATP content in the cells. The growth of the cells was evaluated, and IC50 of the compounds against cell growth was calculated.

The structures appear in SMILES notation. Where two headings read alike, the source gives them in different places.

Sequence of DHODH (Q02127 whole entry): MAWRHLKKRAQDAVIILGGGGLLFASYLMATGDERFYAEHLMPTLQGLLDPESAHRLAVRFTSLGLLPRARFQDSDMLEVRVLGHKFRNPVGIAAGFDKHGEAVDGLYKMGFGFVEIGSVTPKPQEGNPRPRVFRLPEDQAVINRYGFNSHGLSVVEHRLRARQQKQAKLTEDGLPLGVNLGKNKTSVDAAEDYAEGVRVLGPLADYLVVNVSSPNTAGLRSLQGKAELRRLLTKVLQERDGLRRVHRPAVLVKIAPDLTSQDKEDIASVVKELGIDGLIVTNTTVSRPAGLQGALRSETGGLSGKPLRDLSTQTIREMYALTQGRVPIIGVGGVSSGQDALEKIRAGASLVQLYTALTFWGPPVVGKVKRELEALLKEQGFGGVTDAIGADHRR

For `Cc1n[nH]c(C)c1NC(=O)c1cc(F)c(-n2nc3n(c2=O)CCC2(CC2)C3)cc1O[C@@H](C)C(F)(F)F` [Compound 38], the IC50 at DHODH is under 50 nM; in the assay with MV-4-11 cells, 21.4 nM.
`C[C@H](Oc1cc(-n2nc3n(c2=O)CCC2(CC2)C3)c(F)cc1C(=O)Nc1cccc(F)c1)C(F)(F)F` [Compound 9]: the IC50 against DHODH was under 50 nM; in the assay with MV-4-11 cells (class symbols), at most 50 nM.
With `C[C@H](Oc1cc(-n2nc3n(c2=O)CCC2(CC2)C3)c(F)cc1C(=O)Nc1c(F)cccc1F)C(F)(F)F` [Compound 10], in the assay with MV-4-11 cells, the IC50 turned out to be 2.24 nM.
As for `Cc1ccccc1NC(=O)c1cc(F)c(-n2nc3n(c2=O)CCC2(CC2)C3)cc1O[C@@H](C)C(F)(F)F` [Compound 5], the IC50 at DHODH was under 50 nM; with MV-4-11 cells (class symbols), at most 50 nM.
Consider `Cc1cc(F)cc(Cl)c1NC(=O)c1cc(F)c(-n2nc3n(c2=O)CCC2(CC2)C3)cc1O[C@@H](C)C(F)(F)F` [Compound 29], for which the results for the IC50 against DHODH and in the assay on MV-4-11 cells (class symbols) were under 50 nM and at most 50 nM, respectively.
As to `C[C@H](Oc1cc(-n2nc3n(c2=O)CCC2(CC2)C3)c(F)cc1C(=O)Nc1ccccc1F)C(F)(F)F` [Compound 2], the IC50 with MV-4-11 cells is 4.56 nM.
In the case of `C[C@H](Oc1cc(-n2nc3n(c2=O)CCC2(CC2)C3)c(F)cc1C(=O)Nc1ccccc1C(F)(F)F)C(F)(F)F` [Compound 3], the values for the IC50 against DHODH and with MV-4-11 cells were under 50 nM and 5.45 nM, respectively.
Taken in the same sequence, the figures for `C[C@H](Oc1nc(-n2nc3n(c2=O)CCC2(CC2)C3)c(F)cc1C(=O)Nc1c(F)cccc1Cl)C1CCCCC1` [Compound 55] were under 50 nM and 1.45 nM.
`C[C@H](Oc1cc(-n2nc3n(c2=O)CC2(CC2)C3)c(F)cc1C(=O)Nc1c(F)cccc1Cl)C(F)(F)F` [Compound 48]: the IC50 was under 50 nM against DHODH and 10.7 nM in the assay on MV-4-11 cells.
In the case of `CCC[C@H](C)Oc1cc(-n2nc3n(c2=O)CCCC2(CC2)C3)c(F)cc1C(=O)Nc1c(F)cccc1Cl` [Compound 53], the results for the IC50 at DHODH and in the assay on MV-4-11 cells were under 50 nM and 6.89 nM, respectively.
Regarding `Cc1cccc(F)c1NC(=O)c1cc(F)c(-n2nc3n(c2=O)CCC2(CC2)C3)cc1O[C@@H](C)C(F)(F)F` [Compound 11], in the assay with MV-4-11 cells, the IC50 amounted to 2.13 nM.
For `CCc1ccccc1NC(=O)c1cc(F)c(-n2nc3n(c2=O)CCC2(CC2)C3)cc1O[C@@H](C)C(F)(F)F` [Compound 6], the IC50 against DHODH is under 50 nM; in the assay with MV-4-11 cells (class symbols), at most 50 nM.
On to `Cc1cc(F)ccc1NC(=O)c1cc(F)c(-n2nc3n(c2=O)CCC2(CC2)C3)cc1O[C@@H](C)C(F)(F)F` [Compound 22], for which the results for the IC50 against DHODH and in the assay on MV-4-11 cells (class symbols) were under 50 nM and at most 50 nM, respectively.
Regarding `C[C@H](Oc1cc(-n2nc3n(c2=O)CCC2(CC2)C3)c(F)cc1C(=O)Nc1ccc(F)cc1Cl)C(F)(F)F` [Compound 21], the IC50 was under 50 nM against DHODH and at most 50 nM in the assay with MV-4-11 cells (class symbols).
For `C[C@H](Oc1cc(-n2nc3n(c2=O)CCC2(CC2)C3)c(F)cc1C(=O)Nc1ccccc1C(F)F)C(F)(F)F` [Compound 4] the same measures were under 50 nM and at most 50 nM.
With `C[C@H](Oc1cc(-n2nc3n(c2=O)CCC2(CC2)C3)c(F)cc1C(=O)Nc1c(F)cccc1C(F)(F)F)C(F)(F)F` [Compound 14], the IC50 at DHODH is under 50 nM; in the assay with MV-4-11 cells (class symbols) it was at most 50 nM.
`COc1cccc(C)c1NC(=O)c1cc(F)c(-n2nc3n(c2=O)CCC2(CC2)C3)cc1O[C@@H](C)C(F)(F)F` [Compound 18]: the IC50 with MV-4-11 cells (class symbols) is at most 50 nM.
For the compound `Cc1ccnc(Cl)c1NC(=O)c1cc(F)c(-n2nc3n(c2=O)CCC2(CC2)C3)cc1O[C@@H](C)C(F)(F)F` [Compound 36], the IC50 against DHODH is under 50 nM; in the assay with MV-4-11 cells it was 12.4 nM.
On to `C[C@H](Oc1cc(-n2nc3n(c2=O)CCCC2(CC2)C3)c(F)cc1C(=O)Nc1c(F)cccc1Cl)C1CCCCC1` [Compound 52], for which the IC50 at DHODH was under 50 nM; in the assay on MV-4-11 cells (class symbols), at most 50 nM.
For `CC(C)Oc1cc(-n2nc3n(c2=O)CCC2(CC2)C3)c(F)cc1C(=O)Nc1c(F)cccc1Cl` [Compound 40] the same measures were under 50 nM and at most 50 nM.
Turning to `C[C@H](Oc1cc(-n2nc3n(c2=O)CCC2(CC2)C3)c(F)cc1C(=O)Nc1c(Cl)cc(F)cc1Cl)C(F)(F)F` [Compound 28], the IC50 at DHODH is under 50 nM; in the assay with MV-4-11 cells (class symbols) it was at most 50 nM.
For `Cc1ccc(F)c(NC(=O)c2cc(F)c(-n3nc4n(c3=O)CCC3(CC3)C4)cc2O[C@@H](C)C(F)(F)F)c1` [Compound 19] the same measures were under 50 nM and at most 50 nM.
`C[C@H](Oc1cc(-n2nc3n(c2=O)CCC2(CC2)C3)c(F)cc1C(=O)Nc1c(Cl)cccc1Cl)C(F)(F)F` [Compound 13]: the IC50 at DHODH was under 50 nM; in the assay with MV-4-11 cells, 1.56 nM.
Turning to `C[C@H](Oc1cc(-n2nc3n(c2=O)CCC2(CC2)C3)c(F)cc1C(=O)Nc1c(F)cccc1Cl)C1CCC1` [Compound 45], the results for the IC50 against DHODH and in the assay on MV-4-11 cells (class symbols) were under 50 nM and at most 50 nM, respectively.
As to `C[C@H](Oc1cc(-n2nc3n(c2=O)CCC2(CC2)C3)c(F)cc1C(=O)Nc1c(F)cccc1Cl)C1CC1` [Compound 44], the IC50 against DHODH is under 50 nM; in the assay with MV-4-11 cells (class symbols), at most 50 nM.
For `CC(C)[C@H](C)Oc1cc(-n2nc3n(c2=O)CCC2(CC2)C3)c(F)cc1C(=O)Nc1c(F)cccc1Cl` [Compound 43] the same measures were under 50 nM and at most 50 nM.
Consider `Cc1cccnc1NC(=O)c1cc(F)c(-n2nc3n(c2=O)CCC2(CC2)C3)cc1O[C@@H](C)C(F)(F)F` [Compound 33], for which the figures for the IC50 on DHODH and in the assay with MV-4-11 cells (class symbols) were under 50 nM and 50 to 500 nM, respectively.
Take `Cc1n[nH]c(Cl)c1NC(=O)c1cc(F)c(-n2nc3n(c2=O)CCC2(CC2)C3)cc1O[C@@H](C)C(F)(F)F` [Compound 39]: the IC50 against DHODH is under 50 nM; in the assay with MV-4-11 cells, 65.8 nM.
Take `C[C@H](Oc1cc(-n2nc3n(c2=O)CCC2(CC2)C3)c(F)cc1C(=O)Nc1cc(Cl)ccc1F)C(F)(F)F` [Compound 20]: the results for the IC50 on DHODH and in the assay on MV-4-11 cells (class symbols) were under 50 nM and at most 50 nM, respectively.
`COc1nccc(Cl)c1NC(=O)c1cc(F)c(-n2nc3n(c2=O)CCC2(CC2)C3)cc1O[C@@H](C)C(F)(F)F` [Compound 37]: the IC50 is under 50 nM at DHODH and 10.5 nM in the assay on MV-4-11 cells.
For `COc1ccnc(C)c1NC(=O)c1cc(F)c(-n2nc3n(c2=O)CCC2(CC2)C3)cc1O[C@@H](C)C(F)(F)F` [Compound 35] the same measures were under 50 nM and 6.79 nM.
For `CC[C@H](C)Oc1cc(-n2nc3n(c2=O)CCC2(CC2)C3)c(F)cc1C(=O)Nc1c(F)cccc1Cl` [Compound 41], the IC50 against DHODH is under 50 nM; in the assay with MV-4-11 cells (class symbols), at most 50 nM.
`C[C@H](Oc1cc(-n2nc3n(c2=O)CCC2(CC2)C3)c(F)cc1C(=O)Nc1c(F)cccc1Cl)C1CCCCC1` [Compound 47]: the IC50 was under 50 nM at DHODH and at most 50 nM in the assay with MV-4-11 cells (class symbols).
On to `CCC[C@H](C)Oc1nc(-n2nc3n(c2=O)CCC2(CC2)C3)c(F)cc1C(=O)Nc1c(C)cnc(OC)c1Cl` [Compound 59], for which the results for the IC50 at DHODH and in the assay on MV-4-11 cells were under 50 nM and 2.05 nM, respectively.
With `Cc1cc(N)ccc1NC(=O)c1cc(F)c(-n2nc3n(c2=O)CCC2(CC2)C3)cc1O[C@@H](C)C(F)(F)F` [Compound 25], the values for the IC50 against DHODH and with MV-4-11 cells (class symbols) were under 50 nM and at most 50 nM, respectively.
As to `COc1cccc(C)c1NC(=O)c1cc(F)c(-n2nc3n(c2=O)CCC2(CC2)C3)cc1O[C@@H](C)C(F)(F)F` [Compound 15], in the assay on MV-4-11 cells, the IC50 worked out at 3.42 nM.
In the case of `Cc1cccc(N)c1NC(=O)c1cc(F)c(-n2nc3n(c2=O)CCC2(CC2)C3)cc1O[C@@H](C)C(F)(F)F` [Compound 17], the IC50 in the assay on MV-4-11 cells (class symbols) was at most 50 nM.
